Assay results from patent publication US4395413A, “Oxime ethers and pharmaceutical compositions containing the same” (Egyt Gyogyszervegyeszeti Gyar, priority 1979, dated 1983).
Where two headings read alike, the source gives them in different places.

Tests used:
[1] = acute toxicity on white mice (strain CFLP); conditions: mouse, in vivo, 4 days observation
Method: The acut toxicity of the new compounds according to the invention was determined on white mice of both sexes weighing 18-24 g belonging to the strain CFLP. Administration was effected with an oral or intraperitoneal dosage of 20 ml/kg. After treatment the animals were kept under observation for 4 days.

[2] = analgesic effect on mice (method of Koster); format: in vivo; conditions: for ED50: Mus musculus, po; for Therapeutic index: p.o.
Method:  The analgesic effect was determined on mice by the method of Koster, R.
Anderson, M., De Beer, E. J., Fred.

ischiadic nerve of rats = experiment: local anaesthetic effect on the ischiadic nerve of rats (method of Truant and d'Amato); format: in vivo; conditions: for Duration 0.25% / EC50: rats, ischiadic nerve; for Duration 0.25%: 0.25% concentration; for EC50: local anaesthesia; for Relative efficiency: referred to Lidocaine
Excerpt: The local anaesthetic effect was investigated on the ischiadic nerve of rats by means of the method of Truant and d'Amato /Truant, A. P. and Wiedling, S.: Acta Chirurg. Scand. 116, 351 /1958//. Lidocaine served as reference substance.
In Table III. below, the relative efficiency referred to Lidocaine and the duration of the effect on application of 0.25% concentrations of Lidocaine are given.

nicotine-lethality = experiment: inhibition of nicotine-lethality on mice (method of Stone); format: in vivo; conditions: for ED50: Mus musculus, po, read-out: ED50 /p.o./; for Therapeutic index: nicotine-lethality inhibition
Method: The inhibition of nicotine-lethality was determined on mice by the method of Stone /Stone, C. A. et al.: Arch. Intern.

[3] = hypotensive effect on anaesthesized cats; format: in vivo; conditions: doses of 3 and 5 mg/kg
Method: (§1) The hypotensive effect of the new compounds was tested on anaesthesized cats. The compound of Example 7, administered in doses of 3 and 5 mg/kg, results in a prolonged decrease of blood pressure of 40 Hgmm. […] This compound, orally tested on waking rats of normal tension in a dosage of 100 mg/kg, results in a decrease of blood pressure of 13 Hgmm.

noradrenaline = noradrenaline antagonistic (alpha-receptor blocking) effect; format: in vivo, cats
isoproterenol = isoproterenol antagonistic (beta-receptor blocking) effect; format: in vivo, cats
carotid occlusion reflex = experiment: effect on the carotid occlusion reflex; format: in vivo, cats; conditions: qualitative
Method: as §1

orthostatic hypotension = experiment: influence on the orthostatic hypotension; format: in vivo; conditions: qualitative
[4] = blood pressure of waking rats of normal tension, oral; format: in vivo; conditions: orally, 100 mg/kg
Method: as §1

[5] = po, per os, read-out: LD50 per os.

SMILES	LD50 at 96 h ([1]; ip, read-out: LD50 i.p.)	LD50 at 96 h [1, 5]	ED50 [2]	Therapeutic index [2]	ED50 (nicotine-lethality; mice, p.o., nicotine-lethality)	Therapeutic index (nicotine-lethality; mice, p.o.)	further results
CCCCC1CCCCC1=NOCCN(C)C (stereo not shown) [Example 1, 2-n-butyl-1-/2'-dimethylaminoethoxyimino/-cyclohexane]	135 mg/kg	580 mg/kg	320 mg/kg	–	–	–	–
CCCCC1CCCCC1=NOCCCN(C)C (stereo not shown) [Example 3, 2-n-butyl-1-/3'-dimethylaminopropoxyimino/-cyclohexane]	100 mg/kg	430 mg/kg	45 mg/kg	9	–	–	–
CCCCC1CCCCC1=NOCC(C)CN(C)C (stereo not shown) [Example 4, 2-n-butyl-1-/2'-methyl-3'-dimethylaminopropoxyimino/-cyclohexane]	110 mg/kg	400 mg/kg	–	–	–	–	Duration 0.25% (ischiadic nerve of rats): 31 min; EC50 (ischiadic nerve of rats): 0.15 % conc.; Relative efficiency (ischiadic nerve of rats): 1.13
CCCCC1CCCCC1=NOCCCN1CCN(Cc2ccccc2)CC1 (stereo not shown) [Example 5, 2-n-butyl-1-[3'-/4"-benzylpiperazinyl/-propoxyimino]-cyclohexane]	240 mg/kg	1300 mg/kg	250 mg/kg	5.2	–	–	–
CCCC=C1CCCCC1=NOCCCN1CCN(C)CC1 [Example 7, 2-butylidene-1-[3'-/4"-methylpiperazinyl/-propoxyimino]-cyclohexane]	330 mg/kg	1600 mg/kg	–	–	155 mg/kg	10.0	prolonged decrease of blood pressure [3]: 40 Hgmm; ED50 (noradrenaline; Felis catus, iv, read-out: noradrenaline antagonistic i.v. ED50): 2.3 mg/kg; alpha-receptor blocking effect (noradrenaline; qualitative): alpha- and beta-receptor blocking effect; ED50 (isoproterenol; Felis catus, iv, read-out: isoproterenol antagonistic i.v. ED50): 2.5 mg/kg; beta-receptor blocking effect (isoproterenol; qualitative): alpha- and beta-receptor blocking effect; effect on the carotid occlusion reflex (carotid occlusion reflex): decreases the effect on the carotid occlusion reflex; influence on the orthostatic hypotension (orthostatic hypotension): no influence on the orthostatic hypotension; decrease of blood pressure [4]: 13 Hgmm
CCCC=C1CCCCC1=NOCCCN1CCN(Cc2ccccc2)CC1 [Example 8, 2-butylidene-[3'-/4"-benzylpiperazinyl/-propoxyimino]-cyclohexane]	230 mg/kg	1450 mg/kg	290 mg/kg	5	–	–	–
CCCCC=C1CCCCC1=NOCCCN1CCN(C)CC1 [Example 9, 2-pentylidene-1-[3'-/4"-methylpiperazinyl/-propoxyimino]-cyclohexane]	200 mg/kg	3000 mg/kg	500 mg/kg	6	150 mg/kg	20.0	Duration 0.25% (ischiadic nerve of rats): 64 min; EC50 (ischiadic nerve of rats): 0.25 % conc.; Relative efficiency (ischiadic nerve of rats): 0.76
CCCCC=C1CCCCC1=NOCCCN1CCN(Cc2ccccc2)CC1 [Example 10, 2-pentylidene-1-[3'-/4"-benzylpiperazinyl/-propoxyimino]-cyclohexane]	160 mg/kg	1800 mg/kg	140 mg/kg	13.0	–	–	–
C=CCC1CCCCC1=NOCCCN1CCN(C)CC1 (stereo not shown) [Example 14, 2-allyl-[3'-/4"-methylpiperazinyl/-propoxyimino]-cyclohexane]	310 mg/kg	1600 mg/kg	–	–	70 mg/kg	22.0	–
CCCCCC=C1CCCCC1=NOCCCN1CCN(C)CC1 [Example 15, 2-hexylidene-1-[3'-/4"-methylpiperazinyl/propoxyimino]-cyclohexane]	200 mg/kg	3000 mg/kg	–	–	190 mg/kg	16.0	–
CCCCCCCC=C1CCCCC1=NOCCCN1CCN(C)CC1 [Example 16, 2-octylidene-1-[3'-/4"-methylpiperazinyl/propoxyimino]-cyclohexane]	270 mg/kg	3000 mg/kg	200 mg/kg	15.0	–	17.6	ED50 (nicotine-lethality): 150 mg/kg
CCN(CC)CC(=O)Nc1c(C)cccc1C [Lidocaine, reference compound]	–	–	–	–	–	–	Duration 0.25% (ischiadic nerve of rats): 24 min; EC50 (ischiadic nerve of rats): 0.19 % conc.; Relative efficiency (ischiadic nerve of rats): 1.00
OC(CCN1CCCCC1)(c1ccccc1)C1CCCCC1 (stereo not shown) [Trihexyphenidyl, reference compound]	–	–	–	–	40 mg/kg	9.13	–
